In US7282507B2, “Indole derivatives as selective androgen receptor modulators (SARMS)” (Janssen Pharmaceutica N.V., priority 2004, dated 2007):
Several values for one entry are separate records, joined by “and”; a condition that tells them apart may be missing. Identical values can stand only once.

How the values were obtained:
[1] = target: T1, androgen receptor (rat ventral prostate cytosol) (Rattus norvegicus, UniProt P15207); experiment: Androgen Receptor Binding Using Rat Ventral Prostate Cytosol; conditions: for % Inhibition, Androgen Receptor Binding (Rat Cytosol) / inhibition at 3 µM: Concentration 3000 nM
T1 construct: from tissue; host or cells: ventral prostate cytosol of castrated male Sprague Dawley or Wistar rats
T1 sequence (P15207 1-902): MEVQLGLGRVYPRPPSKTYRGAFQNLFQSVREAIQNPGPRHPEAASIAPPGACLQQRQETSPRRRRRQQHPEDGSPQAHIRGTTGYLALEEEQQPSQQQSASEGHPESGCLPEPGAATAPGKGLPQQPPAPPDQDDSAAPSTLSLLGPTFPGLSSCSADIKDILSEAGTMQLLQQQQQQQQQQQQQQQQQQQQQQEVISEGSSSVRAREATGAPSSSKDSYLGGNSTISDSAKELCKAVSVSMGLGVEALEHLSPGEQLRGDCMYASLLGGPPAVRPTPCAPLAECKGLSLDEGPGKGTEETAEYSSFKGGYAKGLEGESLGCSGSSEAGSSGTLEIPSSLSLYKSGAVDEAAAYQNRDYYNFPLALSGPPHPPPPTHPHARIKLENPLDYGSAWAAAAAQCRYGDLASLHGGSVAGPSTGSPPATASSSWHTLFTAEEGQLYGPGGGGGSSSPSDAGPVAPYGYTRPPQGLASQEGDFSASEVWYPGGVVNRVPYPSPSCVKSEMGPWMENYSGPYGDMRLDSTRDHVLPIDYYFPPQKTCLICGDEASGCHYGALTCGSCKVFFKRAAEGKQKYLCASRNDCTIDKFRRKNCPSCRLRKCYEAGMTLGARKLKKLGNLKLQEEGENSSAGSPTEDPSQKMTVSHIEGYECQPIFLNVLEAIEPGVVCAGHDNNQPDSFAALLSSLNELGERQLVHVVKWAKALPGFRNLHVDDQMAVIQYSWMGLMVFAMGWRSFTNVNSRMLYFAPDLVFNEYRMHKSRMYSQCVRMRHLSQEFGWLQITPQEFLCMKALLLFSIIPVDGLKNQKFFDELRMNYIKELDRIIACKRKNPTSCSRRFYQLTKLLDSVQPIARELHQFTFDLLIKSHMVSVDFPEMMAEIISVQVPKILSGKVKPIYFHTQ
In short: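 Cytosol from castrated rat ventral prostate was incubated overnight at 4°C with 0.5 nM [3H] tracer and compound in TED buffer (10 mM Tris-HCl pH 7.4, molybdate, EDTA, DTT, glycerol).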

[2] = system: testosterone-enhanced ventral prostate and seminal vesicle weights; experiment: Ventral Prostate and Seminal Vesicle Weight in vivo Assay; set-up: species or system rat; conditions: immature castrated male Sprague Dawley rats, once daily for five days, usually orally 40 mg/kg, with testosterone propionate 2 mg/kg s.c. Note: key: 'active' if the non weight adjusted prostate weight was ≦40 mg or the % Inhibition prostate weight, body weight adjusted was ≧40% @ 2 mg/day dosage; ID50's, if determined, of ≦15 mg/day also indicated an 'active' compound; listed herein as 'inactive' as they did not meet the specified criteria defined above.
In short: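 Wet weights of ventral prostate and seminal vesicles were taken on day six. Castrated immature male Sprague Dawley rats had received five daily doses of testosterone propionate (2 mg/kg s.c.) together with test compound, typically 40 mg/kg orally. Activity was scored from absolute prostate weight or body-weight-adjusted % inhibition.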

SMILES | inhibition at 3 µM [1] | active / inactive: inhibition of testosterone-enhanced prostate weight [2] | further results
CCS(=O)(=O)CC(C)(O)c1cc2cc([N+](=O)[O-])c(C(F)(F)F)cc2[nH]1 (stereo not drawn) [Compound 151] | – | – | % Inhibition, Androgen Receptor Binding (Rat Cytosol) ([1]; 3 µM): 100%
CCS(=O)(=O)C[C@](C)(O)c1cc2cc([N+](=O)[O-])c(C(F)(F)F)cc2[nH]1 [Compound 156, 1-Ethanesulfonyl-2-(5-nitro-6-trifluoromethyl-1H-indol-2-yl)-propan-2-ol] | 66% | inactive | % Inhibition, Androgen Receptor Binding (Rat Cytosol) ([1]; 3 µM): 67%
CCSCC(C)(O)c1cc2cc([N+](=O)[O-])c(C(F)(F)F)cc2n1C (racemic) [Compound 165] | 52% | active | –
CC(O)(CSc1ccc([N+](=O)[O-])cc1)c1cc2cc(Cl)c(C(F)(F)F)cc2[nH]1 (stereo not drawn) [Compound 122] | 83.5% | – | –
CCSCC(C)(O)c1cc2cc([N+](=O)[O-])c(C(F)(F)F)cc2[nH]1 (single isomer, unassigned) [Compound 150] | – | – | % Inhibition, Androgen Receptor Binding (Rat Cytosol) ([1]; 3 µM): 120%
CC(O)(CCS(C)(=O)=O)c1cc2cc([N+](=O)[O-])c(C(F)(F)F)cc2[nH]1 (stereo not drawn) [Compound 49] | 48% | inactive | –
CC[S+]([O-])C[C@](C)(O)c1cc2cc([N+](=O)[O-])c(C(F)(F)F)cc2[nH]1 (stereo in doubt) [Compound 155, 1-Ethanesulfinyl-2-(5-nitro-6-trifluoromethyl-1H-indol-2-yl)-propan-2-ol] | -6.1% | inactive | –
CCSCC(C)(O)c1cc2cc([N+](=O)[O-])c(C(F)(F)F)cc2[nH]1 (single isomer, unassigned) [Compound 149] | – | – | % Inhibition, Androgen Receptor Binding (Rat Cytosol) ([1]; 3 µM): 94% and 77%
CCSCC(C)(O)c1cc2cc([N+](=O)[O-])c(C(F)(F)F)cc2n1S(C)(=O)=O (stereo not drawn) [Compound 141] | -4.5% | inactive | –
CC(O)(CSC1CCCC1)c1cc2cc([N+](=O)[O-])c(C(F)(F)F)cc2[nH]1 (stereo not drawn) [Compound 173] | 32% | inactive | –
COc1ccc(SCC(C)(O)c2cc3cc(Cl)c(C(F)(F)F)cc3[nH]2)cc1 (stereo not drawn) [Compound 131] | 120% | inactive | –
CC(O)(CS(C)(=O)=O)c1cc2cc([N+](=O)[O-])c(C(F)(F)F)cc2[nH]1 (stereo not drawn) [Compound 148] | – | – | % Inhibition, Androgen Receptor Binding (Rat Cytosol) ([1]; 3 µM): 94%
CC(O)(CSCc1ccccc1)c1cc2cc([N+](=O)[O-])c(C(F)(F)F)cc2[nH]1 (stereo not drawn) [Compound 160] | 65% | inactive | –
COc1ccc(SCC(C)(O)c2cc3cc(Cl)c(C(F)(F)F)cc3n2S(C)(=O)=O)cc1 (racemic) [Compound 130] | – | – | % Inhibition, Androgen Receptor Binding (Rat Cytosol) [1]: 32.55%
CC(O)(CS(C)(=O)=O)c1cc2cc(Cl)c(C(F)(F)F)cc2[nH]1 (stereo not drawn) [Compound 138] | 110% | inactive | –
CCSCC(O)c1cc2cc([N+](=O)[O-])c(C(F)(F)F)cc2[nH]1 (stereo not drawn) [Compound 158] | 52% | inactive | –
CC(O)(CSc1ccc(N)cc1)c1cc2cc(Cl)c(C(F)(F)F)cc2[nH]1 (stereo not drawn) [Compound 104] | 110% | inactive | inhibition at 1 µM ([1]; Concentration 1000 nM, read-out: % Inhibition, Androgen Receptor Binding (Rat Cytosol)): 94.5%
CCCSCC(C)(O)c1cc2cc([N+](=O)[O-])c(C(F)(F)F)cc2[nH]1 (stereo not drawn) [Compound 168] | 41% | inactive | –
CC(O)(CS(=O)(=O)c1ccc(N)cc1)c1cc2cc(Cl)c(C(F)(F)F)cc2[nH]1 (stereo not drawn) [Compound 118] | 80.5% | inactive | –

SMILES | inhibition at 3 µM [1] | active / inactive: inhibition of testosterone-enhanced prostate weight [2] | further results
CC(O)(CSCC(F)(F)F)c1cc2cc([N+](=O)[O-])c(C(F)(F)F)cc2[nH]1 (stereo not drawn) [Compound 171] | 18% | active | IC50 ([1]; read-out: IC50 (nM), Androgen Receptor Binding (Rat Cytosol)): 320 nM
CC(O)(CS(=O)(=O)c1ccc(O)cc1)c1cc2cc(Cl)c(C(F)(F)F)cc2[nH]1 (stereo not drawn) [Compound 121] | 86% | – | –
CSCC(C)(O)c1cc2cc([N+](=O)[O-])c(C(F)(F)F)cc2[nH]1 (single isomer, unassigned) [Compound 144] | – | – | % Inhibition, Androgen Receptor Binding (Rat Cytosol) ([1]; 3 µM): 79%
CC(C)SCC(C)(O)c1cc2cc([N+](=O)[O-])c(C(F)(F)F)cc2[nH]1 (stereo not drawn) [Compound 164] | 52% | inactive | –
CSCC(C)(O)c1cc2cc([N+](=O)[O-])c(C(F)(F)F)cc2[nH]1 (single isomer, unassigned) [Compound 145] | – | – | % Inhibition, Androgen Receptor Binding (Rat Cytosol) ([1]; 3 µM): 58%
COc1ccc(S(=O)(=O)CC(C)(O)c2cc3cc(Cl)c(C(F)(F)F)cc3[nH]2)cc1 (racemic) [Compound 129] | – | inactive | % Inhibition, Androgen Receptor Binding (Rat Cytosol) [1]: 39.5%
CC(O)(C[S+]([O-])Cc1ccccc1)c1cc2cc([N+](=O)[O-])c(C(F)(F)F)cc2[nH]1 (mixture of isomers) [Compound 161] | – | inactive | % Inhibition, Androgen Receptor Binding (Rat Cytosol) [1]: 39%
CC(O)(CSc1ccc(O)cc1)c1cc2cc(Cl)c(C(F)(F)F)cc2[nH]1 (stereo not drawn) [Compound 120] | 130% | – | –
CC(O)(CS(C)(=O)=O)c1cc2cc([N+](=O)[O-])c(C(F)(F)F)cc2[nH]1 (stereo not drawn) [Compound 147] | – | – | % Inhibition, Androgen Receptor Binding (Rat Cytosol) ([1]; 3 µM): 68%
CCC(O)(CS(=O)(=O)CC)c1cc2cc([N+](=O)[O-])c(C(F)(F)F)cc2[nH]1 (stereo not drawn) [Compound 176] | 90% | active | –
CCS(=O)(=O)CC(C)(O)c1cc2cc([N+](=O)[O-])c(C(F)(F)F)cc2[nH]1 (stereo not drawn) [Compound 143] | – | active | % Inhibition, Androgen Receptor Binding (Rat Cytosol) ([1]; 3 µM): 14%
CCSCC(O)(CC)c1cc2cc([N+](=O)[O-])c(C(F)(F)F)cc2[nH]1 (stereo not drawn) [Compound 169] | 62% | active | –
CSCC(C)(O)c1cc2cc(C#N)c(C(F)(F)F)cc2[nH]1 (stereo not drawn) [Compound 136] | 38% | active | –
CC(C)CSCC(C)(O)c1cc2cc([N+](=O)[O-])c(C(F)(F)F)cc2[nH]1 (stereo not drawn) [Compound 170] | 80% | active | –
CCSCC(C)(O)c1cc2cc([N+](=O)[O-])c(C(F)(F)F)cc2[nH]1 (racemic) [Compound 142] | 92% | active | –
CSCCC(C)(O)c1cc2cc([N+](=O)[O-])c(C(F)(F)F)cc2[nH]1 (stereo not drawn) [Compound 47] | 81% | inactive | –
CSCC(C)(O)c1cc2cc(Cl)c(C(F)(F)F)cc2[nH]1 (stereo not drawn) [Compound 135] | 130% | inactive | –
CC(O)(CS(C)(=O)=O)c1cc2cc([N+](=O)[O-])c(C(F)(F)F)cc2[nH]1 (stereo not drawn) [Compound 140] | – | active | % Inhibition, Androgen Receptor Binding (Rat Cytosol) ([1]; 3 µM): 47%
